Values joined by “and” are separate entries in the source; they are usually repeats but may differ in a detail not shown here. Equal values may be shown once. Toxic doses and inconclusive results are not listed.

For this test, the system named is BDF1 mice, P388 leukemia ip, median survival T/C. Description: NCI In Vivo Anticancer Drug Screen. Data for tumor model P388 Leukemia (intraperitoneal) in B6D2F1 (BDF1) mice. As to conditions: endpoint: median survival time, higher = longer survival. Put shortly: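 Read-out is survival of treated animals expressed relative to the vehicle group, as a T/C ratio.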

Setting [1] is: dose: 50.0 mg/kg/injection, schedule: Q01DX009 (ip), vehicle: saline.
[2] abbreviates: dose: 100.0 mg/kg/injection, schedule: Q01DX009 (ip), vehicle: saline.
The mark [3] stands for this setting: dose: 100.0 mg/kg/injection, schedule: Q04DX003 (ip), vehicle: saline.
[4] abbreviates: dose: 200.0 mg/kg/injection, schedule: Q01DX009 (ip), vehicle: saline.
Where [5] appears, read: dose: 200.0 mg/kg/injection, schedule: Q04DX003 (ip), vehicle: saline.
Where [6] appears, read: dose: 400.0 mg/kg/injection, schedule: Q04DX003 (ip), vehicle: saline.
Where [7] appears, read: dose: 6.25 mg/kg/injection, schedule: Q01DX009 (ip), vehicle: saline with Tween-80.
Where [8] appears, read: dose: 12.5 mg/kg/injection, schedule: Q01DX009 (ip), vehicle: saline with Tween-80.
[9] abbreviates: dose: 25.0 mg/kg/injection, schedule: Q01DX009 (ip), vehicle: saline with Tween-80.
Where [10] appears, read: dose: 400.0 mg/kg/injection, schedule: Q04DX003 (ip), vehicle: Klucel (hydroxypropylcellulose) (HPC).
The mark [11] stands for this setting: dose: 100.0 mg/kg/injection, schedule: Q01DX009 (ip), vehicle: saline with Tween-80.
The mark [12] stands for this setting: dose: 100.0 mg/kg/injection, schedule: Q04DX003 (ip), vehicle: saline with Tween-80.
Where [13] appears, read: dose: 200.0 mg/kg/injection, schedule: Q04DX003 (ip), vehicle: saline with Tween-80.
Where [14] appears, read: dose: 400.0 mg/kg/injection, schedule: Q04DX003 (ip), vehicle: saline with Tween-80.
Setting [15] is: dose: 25.0 mg/kg/injection, schedule: Q01DX009 (ip), vehicle: saline.
Setting [16] is: dose: 400.0 mg/kg/injection, schedule: Q01DX009 (ip), vehicle: saline.

Consider `O=C(/C=N/O)c1cccnc1`, for which the T/C reads like this: (dose: 25.0 mg/kg/injection, schedule: Q04DX003 (ip), vehicle: saline sonified) 100 % of control; (dose: 50.0 mg/kg/injection, schedule: Q04DX003 (ip), vehicle: saline sonified) 95 % of control; (dose: 100.0 mg/kg/injection, schedule: Q04DX003 (ip), vehicle: saline sonified) 100 % of control.

For `NC(N)=Nc1ccc(C(=O)Nc2ccc([N+](=O)[O-])cc2)cc1`, the T/C reads like this: under setting [1], 101 % of control; under setting [2], 103 % of control; under setting [3], 97 % of control; under setting [4], 91 % of control; under setting [5], 91 % of control; under setting [6], 100 % of control.

With `Cn1ncc2c(NCc3ccc(Cl)cc3)ncnc21`, the T/C was 97 % of control under setting [7]; 101 % of control under setting [8]; 93 % of control under setting [9]; 97 % of control (dose: 50.0 mg/kg/injection, schedule: Q01DX009 (ip), vehicle: saline with Tween-80).

Turning to `Oc1ccc(/C=N/NC(=S)Nc2ccccc2)nc1`, the T/C under setting [10] is 150 % of control.

With `CCCC#CCOCC1CO1` (stereo unspecified), the T/C runs as follows: under setting [11], 116 % of control; under setting [12], 100 % of control; (dose: 200.0 mg/kg/injection, schedule: Q01DX009 (ip), vehicle: saline with Tween-80) 120 % of control; under setting [13], 100 % of control; under setting [14], 95 % of control.

Consider `O=[N+]([O-])C(Cl)(Cl)C(Cl)(Cl)[N+](=O)[O-]`, for which the T/C runs as follows: (dose: 1.25 mg/kg/injection, schedule: Q01DX009 (ip), vehicle: other) 100 % of control; (dose: 2.5 mg/kg/injection, schedule: Q01DX009 (ip), vehicle: other) 100 % of control; (dose: 2.5 mg/kg/injection, schedule: Q04DX003 (ip), vehicle: other) 87 % of control; (dose: 5.0 mg/kg/injection, schedule: Q01DX009 (ip), vehicle: other) 95 % of control; (dose: 5.0 mg/kg/injection, schedule: Q04DX003 (ip), vehicle: other) 104 % of control.

As for `ClCCN(CCCl)c1ccc2c3c(cccc13)-c1ccccc1-2`, the T/C is, setting by setting: (dose: 66.0 mg/kg/injection, schedule: Q01DX009 (ip), vehicle: saline with Tween-80) 151 % of control; under setting [11], 177 % of control; (dose: 132.0 mg/kg/injection, schedule: Q04DX003 (ip), vehicle: saline with Tween-80) 160 % of control; (dose: 150.0 mg/kg/injection, schedule: Q01DX009 (ip), vehicle: saline with Tween-80) 214 % of control; under setting [13], 182 % of control; (dose: 300.0 mg/kg/injection, schedule: Q04DX003 (ip), vehicle: saline with Tween-80) 226 % of control.

`CC(=O)O[C@]1(C(C)=O)CC[C@H]2[C@@H]3C[C@H](C)C4=CC(=O)C=C[C@]4(C)[C@@]3(F)[C@@H](O)C[C@@]21C`: the T/C runs as follows: (dose: 12.5 mg/kg/injection, schedule: Q01DX010 (sc), vehicle: steriod suspending solution) 100 % of control and 108 % of control; (dose: 25.0 mg/kg/injection, schedule: Q01DX010 (sc), vehicle: steriod suspending solution) 100 % of control and 112 % of control; (dose: 50.0 mg/kg/injection, schedule: Q01DX010 (sc), vehicle: steriod suspending solution) 95 % of control and 112 % of control; (dose: 100.0 mg/kg/injection, schedule: Q01DX010 (sc), vehicle: steriod suspending solution) 91 % of control and 104 % of control.

For the compound `CC(=O)CC(=O)NC(C)CCc1ccccc1` (stereo unspecified), the T/C is, setting by setting: under setting [12], 104 % of control; under setting [13], 109 % of control; under setting [14], 109 % of control.

`CCN(CC)CCCNc1c(OC)cc(C)c2sc3ccccc3c(=O)c12`: the T/C reads like this: (dose: 12.5 mg/kg/injection, schedule: Q01DX009 (ip), vehicle: saline) 93 % of control; under setting [15], 108 % of control; under setting [1], 112 % of control.

As to `COc1ccc(C(=NO)c2ccc(OC)cc2)cc1`, the T/C by setting is: (dose: 100.0 mg/kg/injection, schedule: Q01DX009 (ip), vehicle: Klucel (hydroxypropylcellulose) (HPC)) 109 % of control; under setting [2], 100 % of control and 109 % of control; (dose: 200.0 mg/kg/injection, schedule: Q01DX009 (ip), vehicle: Klucel (hydroxypropylcellulose) (HPC)) 118 % of control; under setting [4], 105 % of control and 109 % of control; (dose: 400.0 mg/kg/injection, schedule: Q01DX009 (ip), vehicle: Klucel (hydroxypropylcellulose) (HPC)) 118 % of control; under setting [16], 120 % of control.

`O=c1[nH]nc(-c2ccccc2)nc1/C(=N\Nc1ccccc1)c1ccccc1`: the T/C was 92 % of control (dose: 1.56 mg/kg/injection, schedule: Q01DX009 (ip), vehicle: saline with Tween-80); 107 % of control (dose: 3.12 mg/kg/injection, schedule: Q01DX009 (ip), vehicle: saline with Tween-80); 95 % of control and 98 % of control under setting [7]; 101 % of control under setting [8]; 92 % of control under setting [9].

Regarding `CCCCCCNC1=CC(=O)CC(C)(C)C1`, the T/C runs as follows: under setting [1], 105 % of control; under setting [2], 99 % of control; under setting [4], 107 % of control.

In the case of `COc1ccc(CC#N)c(OCc2ccccc2)c1`, the T/C is 104 % of control (dose: 12.5 mg/kg/injection, schedule: Q01DX009 (ip), vehicle: other); 102 % of control (dose: 25.0 mg/kg/injection, schedule: Q01DX009 (ip), vehicle: other); 98 % of control (dose: 50.0 mg/kg/injection, schedule: Q01DX009 (ip), vehicle: other); 89 % of control (dose: 100.0 mg/kg/injection, schedule: Q01DX009 (ip), vehicle: other); 95 % of control (dose: 200.0 mg/kg/injection, schedule: Q01DX009 (ip), vehicle: other).

As for `O=C(O)C1CC[N-]CC1.O=C(O)C1CC[N-]CC1.[Cl][Pt+2]([Cl])([Cl])[Cl]`, the T/C is 109 % of control (dose: 3.12 mg/kg/injection, schedule: Q01DX009 (ip), vehicle: saline); 90 % of control (dose: 6.25 mg/kg/injection, schedule: Q01DX009 (ip), vehicle: saline); 94 % of control under setting [15]; 100 % of control under setting [1].

For `[Co].[N-]=C=S.[N-]=C=S.[N-]=C=S.[NH2-].[NH2-].[NH2-]`, the T/C was 107 % of control (dose: 12.5 mg/kg/injection, schedule: Q01DX005 (ip), vehicle: saline with Tween-80); 110 % of control (dose: 25.0 mg/kg/injection, schedule: Q01DX005 (ip), vehicle: saline with Tween-80); 117 % of control (dose: 50.0 mg/kg/injection, schedule: Q01DX005 (ip), vehicle: saline with Tween-80); 98 % of control (dose: 100.0 mg/kg/injection, schedule: Q01DX001 (ip), vehicle: suspension in saline); 120 % of control (dose: 200.0 mg/kg/injection, schedule: Q01DX001 (ip), vehicle: suspension in saline); 98 % of control (dose: 400.0 mg/kg/injection, schedule: Q01DX001 (ip), vehicle: suspension in saline).

Turning to `C#CC(N)=O`, the T/C reads like this: (dose: 12.5 mg/kg/injection, schedule: Q04DX003 (ip), vehicle: Klucel (hydroxypropylcellulose) (HPC)) 100 % of control; (dose: 25.0 mg/kg/injection, schedule: Q04DX003 (ip), vehicle: Klucel (hydroxypropylcellulose) (HPC)) 90 % of control.

On to `O=c1[nH]cc(CCCO)c(=O)[nH]1`, for which the T/C under setting [1] is 91 % of control; the T/C under setting [2] was 102 % of control; the T/C under setting [3] was 109 % of control; the T/C under setting [4] was 100 % of control; the T/C under setting [5] is 100 % of control; the T/C under setting [16] is 100 % of control. The T/C under setting [6] is 109 % of control.

For `O=c1oc2cccc(O)c2c2c1CCCC2`, the T/C is, setting by setting: (dose: 100.0 mg/kg/injection, schedule: Q04DX003 (ip), vehicle: Klucel (hydroxypropylcellulose) (HPC)) 100 % of control; (dose: 200.0 mg/kg/injection, schedule: Q04DX003 (ip), vehicle: Klucel (hydroxypropylcellulose) (HPC)) 104 % of control; under setting [10], 100 % of control.

The values above are taken from PubChem BioAssay AID328 (DTP/NCI, 2004).
